Test results published in PMC8774364, “Anti-Colon Cancer Activity of Novel Peptides Isolated from In Vitro Digestion of Quinoa Protein in Caco-2 Cells” (Foods, 2022).
Where two headings read alike, the source gives them in different places. Marks after values point to notes of the source that are not given here. Ends that are not written are not given here.

Key:
[1] = system: Caco-2 cells; format: cell-based, human; details: for Viable Cells (%): SD; for inhibition of Caco-2 proliferation: human, Caco-2, 72 h
Procedure: The human CRC cell line Caco-2 was obtained from American Type Cell Collection (ATCC, Manassas, VA, USA) and cultured in MEM medium supplemented with 20% FBS, 1% penicillin, and 1% streptomycin. Cells were maintained at 37 °C in a humidified incubator containing 5% CO2 and 95% air. The medium was changed every 24 h. All cells were assayed within 5–15 passages. Utilizing the CCK-8 kit (Biorigin, Beijing, China), the toxicity test was first performed. Caco-2 cells (100 µL) were incubated in the 96-well plate (1 × 10^5 cells/well) for 24 h, then the original medium was replaced with fresh medium containing different concentrations of QP (1–8 g/L), QPH (1–8 g/L), fraction MW < 5 kDa (1–8 g/L), fraction MW > 5 kDa (1–8 g/L), and selected peptides ranging from 0 to 2 g/L. After 24 h co-cultivation, the medium was discarded and washed with PBS 2 times, and a fresh medium with 10% CCK-8 reagent was added to each cell. Another 1 h later, the absorbance (OD value) was determined by an enzyme-labeling instrument at a wavelength of 450 nm. Experiments were performed in triplicate with at least three replicates per concentration, and results were expressed as percentage of negative control (non-treated Caco-2 cells).
For the proliferation experiments, Caco-2 cells were seeded into 96-well plates at a density of 2.5 × 10^4 per well for 24 h, the incubation was continued for 72 h. After that, the subsequent washing and CCK-8 reaction process were the same as performed in the toxicity test. Finally, the absorbance was also detected at 450 nm. Analyses were performed in triplicate with at least three replicates per concentration, and results were also shown as the percentage of non-treated Caco-2 cells.

[2] = system: colon cancer cells; details: read-out: 50% inhibition; cited from earlier work
Description: Histone acetylation and deacetylation are important for the regulation of gene expression. The family of HDACs includes 18 members, and class I HDACs (HDAC 1, 2, 3, and 8) is considered to be the most important ones. […] For example, HDAC1 expression was increased in colorectal cancer and gastric cancer. In contrast, HDAC1 knockdown causes cell cycle arrest, reduces cancer cell viability, and induces cancer cell apoptosis. Moreover, pharmacological inhibitors ...

[3] = target: T1, HDAC1 (Homo sapiens, UniProt Q13547); assay: HDAC1 inhibitory activity assay (inhibitor screening kit, fluorescence); format: biochemical; details: for HDAC1 IC50 attained or not, in words: peptide 0.05–2 g/L tested; for IC50: peptide 0.05–2 g/L, 30 min at 37 °C, fluorescence, triplicate
T1 construct: purchased Abnova
T1 sequence (Q13547 whole entry): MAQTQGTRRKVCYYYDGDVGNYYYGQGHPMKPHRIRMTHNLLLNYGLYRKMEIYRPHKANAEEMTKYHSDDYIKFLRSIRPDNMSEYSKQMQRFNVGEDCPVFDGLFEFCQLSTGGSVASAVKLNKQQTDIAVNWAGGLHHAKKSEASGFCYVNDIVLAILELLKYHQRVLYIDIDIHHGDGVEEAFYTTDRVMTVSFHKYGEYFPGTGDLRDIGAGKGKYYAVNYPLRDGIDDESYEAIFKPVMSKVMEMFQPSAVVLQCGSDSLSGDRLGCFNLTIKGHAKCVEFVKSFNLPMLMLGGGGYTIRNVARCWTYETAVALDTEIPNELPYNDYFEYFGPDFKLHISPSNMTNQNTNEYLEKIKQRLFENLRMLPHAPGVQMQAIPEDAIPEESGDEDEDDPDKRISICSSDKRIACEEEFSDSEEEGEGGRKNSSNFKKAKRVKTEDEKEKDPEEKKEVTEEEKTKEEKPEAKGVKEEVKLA
Procedure: HDAC1 activity was determined using the HDAC1 inhibitor screening assay kit (Abnova, Taipei, Taiwan). The assay was performed according to the manufacture instruction manual. Briefly, the sample wells were added 140 µL assay buffer, 10 µL diluted HDAC1, and 10 µL peptide samples (0.05–2 g/L). The trichostatin A was set as the positive control, and the sample buffer was set as the negative control. We initiated the reactions by adding 10 µL of HDAC substrate to all the wells being used. Cover the plate with the plate cover and incubate on a shaker for 30 min at 37 °C. Remove the plate cover and add 40 µL of developer. Cover the plate with the plate cover and incubate for 15 min at room temperature. Remove the plate cover and read the fluorescence using an excitation wavelength of 340–360 nm and an emission wavelength of 440–465 nm. IC50 values were calculated using GraphPad Prism 8 software. Analyses were performed in triplicate with at least three replicates per concentration.

[4] = Caco-2, CCK-8, peptide 1 g/L, % of non-treated cells, mean ± SD
[5] = Caco-2, CCK-8, peptide 1 × 10^−1 g/L, % of non-treated cells, mean ± SD
[6] = Caco-2, CCK-8, peptide 2 g/L, % of non-treated cells, mean ± SD
[7] = Caco-2, CCK-8, peptide 5 × 10^−1 g/L, % of non-treated cells, mean ± SD

Substance | Viable Cells (%) [1, 4] | Viable Cells (%) [1, 5] | Viable Cells (%) [1, 6] | Viable Cells (%) [1, 7] | IC50 [2] | Viable Cells (%) ([1]; 24 h, 0.1 g/L) | Viable Cells (%) ([1]; 24 h, 0.5 g/L) | Viable Cells (%) ([1]; 24 h, 1 g/L) | Viable Cells (%) ([1]; 24 h, 2 g/L) | inhibition of Caco-2 proliferation ([1]; 1 g/L) | HDAC1 IC50 attained or not, in words [3] | IC50 [3]
SVENWFPLPR [quinoa peptide identified from QPH fraction < 5 kDa] | 92.14 ± 0.69 ^c % | 99.43% | 91.04 ± 1.53 ^c % | 95.50 ± 3.60 ^b % |  |  |  |  |  |  |  | 
GLESPNYPWPH [quinoa peptide identified from QPH fraction < 5 kDa] | 97.40 ± 0.73 ^b % | 99.75 ± 1.06 ^a % | 97.70% | 99.32 ± 1.05 ^a % |  |  |  |  |  |  |  | 
lunasin |  |  |  |  | 61.7 µM |  |  |  |  |  |  | 
HYNPYFPGGA [HYNPYFPGGA] |  |  |  |  |  | 93.69 ± 0.68 ^d % | 82.34 ± 1.36 ^e % | 67.44 ± 1.26 ^i % | 67.10 ± 1.87 ^h % | more than 30% | can reach to IC50 value | 1650 µM
NSWGPNWGDHG [quinoa peptide identified from QPH fraction < 5 kDa] | 99.58 ± 1.08 ^a % | 98.87% | 97.92 ± 1.41 ^a % | 98.60 ± 2.28 ^a % |  |  |  |  |  |  |  | 
NIFRPF [quinoa peptide identified from QPH fraction < 5 kDa] | 70.29 ± 0.56 ^h % | 100.10 ± 1.03 ^a % | 70.55 ± 2.01 ^g % | 85.11 ± 0.66 ^d % |  |  |  |  |  |  | can reach to IC50 value | 
SLPNFHPFPR [quinoa peptide identified from QPH fraction < 5 kDa] | 78.51 ± 0.26 ^g % | 97.79% | 78.00 ± 0.80 ^f % | 87.21 ± 0.32 ^d % |  |  |  |  |  |  | can reach to IC50 value | 
NSLSLPNFHPFPR [quinoa peptide identified from QPH fraction < 5 kDa] | 86.55 ± 0.58 ^e % | 100.79 ± 0.52 ^a % | 83.56 ± 0.71 ^d % | 92.78 ± 2.20 ^c % |  |  |  |  |  |  |  | 
PNFHPFPR [PNFHPFPR] |  |  |  |  |  | 90.46 ± 1.43 ^e % | 77.26 ± 1.65 ^f % | 65.32 ± 1.45 ^j % | 61.67 ± 1.64 ^i % | more than 30% | can reach to IC50 value | 
NWFPLPR [NWFPLPR] |  |  |  |  |  | 92.86 ± 1.10 ^d % | 79.99 ± 0.86 ^e % | 64.02 ± 1.39 ^j % | 63.18 ± 0.83 ^i % | more than 30% | can reach to IC50 value | 1370 µM
HGSLGFLPR [quinoa peptide identified from QPH fraction < 5 kDa] | 96.81 ± 0.88 ^b % | 97.35 ± 1.03 ^c % | 95.80 ± 0.62 ^b % | 96.91% |  |  |  |  |  |  |  | 
FHPFPR [FHPFPR] |  |  |  |  |  | 90.04 ± 1.26 ^e % | 75.46 ± 0.86 ^f % | 51.41 ± 0.80 ^k % | 50.82 ± 0.76 ^j % | more than 30% | can reach to IC50 value | 1090 µM
FGGGTLGHPW [quinoa peptide identified from QPH fraction < 5 kDa] | 90.41 ± 0.69 ^d % | 97.09 ± 0.74 ^c % | 89.72 ± 0.60 ^c % | 91.65 ± 0.43 ^c % |  |  |  |  |  |  |  | 
INNIFRPF [quinoa peptide identified from QPH fraction < 5 kDa] | 80.44 ± 0.68 ^f % | 100.40 ± 1.29 ^a % | 80.61 ± 0.41 ^e % | 92.05 ± 1.07 ^c % |  |  |  |  |  |  | can reach to IC50 value | 
